Measurements taken from the NIST ThermoML archive (doi:10.1021/acs.jced.7b00769).

Test: xn = mol fraction of the nth substance listed
Conditions: Gas, isochoric method

F/C=C\C(F)(F)F [(Z)-1,3,3,3-tetrafluoro-1-propene] + CC(C)C
Conditions	specific volume [m3/kg]
303.15 K, 145.9 kPa, x2 = 0.118	0.152
303.15 K, 155.7 kPa, x2 = 0.222	0.1514
303.15 K, 206.5 kPa, x2 = 0.427	0.127
303.15 K, 213.5 kPa, x2 = 0.51	0.1286
308.15 K, 148.7 kPa, x2 = 0.118	0.152
308.15 K, 158.6 kPa, x2 = 0.222	0.1514
308.15 K, 210.5 kPa, x2 = 0.427	0.127
308.15 K, 217.4 kPa, x2 = 0.51	0.1286
313.15 K, 151.4 kPa, x2 = 0.118	0.1521
313.15 K, 161.5 kPa, x2 = 0.222	0.1515
313.15 K, 214.4 kPa, x2 = 0.427	0.1271
313.15 K, 221.3 kPa, x2 = 0.51	0.1286
313.15 K, 398.1 kPa, x2 = 0.658	0.0757
318.15 K, 154 kPa, x2 = 0.118	0.1521
318.15 K, 164.3 kPa, x2 = 0.222	0.1515
318.15 K, 218.3 kPa, x2 = 0.427	0.1271
318.15 K, 225.2 kPa, x2 = 0.51	0.1287
318.15 K, 362.3 kPa, x2 = 0.725	0.0906
318.15 K, 406.6 kPa, x2 = 0.658	0.0758
323.15 K, 156.8 kPa, x2 = 0.118	0.1521
323.15 K, 167.2 kPa, x2 = 0.222	0.1515
323.15 K, 222.2 kPa, x2 = 0.427	0.1271
323.15 K, 229.2 kPa, x2 = 0.51	0.1287
323.15 K, 369.1 kPa, x2 = 0.725	0.0906
323.15 K, 414.5 kPa, x2 = 0.658	0.0758
328.15 K, 159.4 kPa, x2 = 0.118	0.1522
328.15 K, 170 kPa, x2 = 0.222	0.1516
328.15 K, 226 kPa, x2 = 0.427	0.1271
328.15 K, 233.1 kPa, x2 = 0.51	0.1287
328.15 K, 375.8 kPa, x2 = 0.725	0.0906
328.15 K, 423.1 kPa, x2 = 0.658	0.0758
333.15 K, 162 kPa, x2 = 0.118	0.1522
333.15 K, 172.7 kPa, x2 = 0.222	0.1516
333.15 K, 229.8 kPa, x2 = 0.427	0.1272
333.15 K, 237 kPa, x2 = 0.51	0.1287
333.15 K, 382.5 kPa, x2 = 0.725	0.0907
333.15 K, 430.7 kPa, x2 = 0.658	0.0758
338.15 K, 164.6 kPa, x2 = 0.118	0.1522
338.15 K, 175.4 kPa, x2 = 0.222	0.1516
338.15 K, 233.6 kPa, x2 = 0.427	0.1272
338.15 K, 240.9 kPa, x2 = 0.51	0.1288
338.15 K, 389.1 kPa, x2 = 0.725	0.0907
338.15 K, 438.4 kPa, x2 = 0.658	0.0758
343.15 K, 167.2 kPa, x2 = 0.118	0.1523
343.15 K, 178.2 kPa, x2 = 0.222	0.1517
343.15 K, 237.3 kPa, x2 = 0.427	0.1272
343.15 K, 244.7 kPa, x2 = 0.51	0.1288
343.15 K, 395.8 kPa, x2 = 0.725	0.0907
343.15 K, 446 kPa, x2 = 0.658	0.0758
348.15 K, 169.8 kPa, x2 = 0.118	0.1523
348.15 K, 180.8 kPa, x2 = 0.222	0.1517
348.15 K, 241.1 kPa, x2 = 0.427	0.1272
348.15 K, 248.6 kPa, x2 = 0.51	0.1288
348.15 K, 402.5 kPa, x2 = 0.725	0.0907
348.15 K, 453.6 kPa, x2 = 0.658	0.0759
353.15 K, 172.5 kPa, x2 = 0.118	0.1523
353.15 K, 183.7 kPa, x2 = 0.222	0.1517
353.15 K, 244.7 kPa, x2 = 0.427	0.1273
353.15 K, 252.4 kPa, x2 = 0.51	0.1288
353.15 K, 409.1 kPa, x2 = 0.725	0.0907
353.15 K, 461.2 kPa, x2 = 0.658	0.0759
358.15 K, 175.1 kPa, x2 = 0.118	0.1524
358.15 K, 186.5 kPa, x2 = 0.222	0.1518
358.15 K, 248.6 kPa, x2 = 0.427	0.1273
358.15 K, 256.3 kPa, x2 = 0.51	0.1289
358.15 K, 415.6 kPa, x2 = 0.725	0.0908
358.15 K, 468.5 kPa, x2 = 0.658	0.0759
363.15 K, 177.7 kPa, x2 = 0.118	0.1524
363.15 K, 189.4 kPa, x2 = 0.222	0.1518
363.15 K, 252.3 kPa, x2 = 0.427	0.1273
363.15 K, 260.1 kPa, x2 = 0.51	0.1289
363.15 K, 422.1 kPa, x2 = 0.725	0.0908
363.15 K, 476 kPa, x2 = 0.658	0.0759
368.15 K, 180.3 kPa, x2 = 0.118	0.1524
368.15 K, 192.1 kPa, x2 = 0.222	0.1518
368.15 K, 256 kPa, x2 = 0.427	0.1274
368.15 K, 263.9 kPa, x2 = 0.51	0.1289
368.15 K, 428.6 kPa, x2 = 0.725	0.0908
368.15 K, 483.4 kPa, x2 = 0.658	0.0759
373.15 K, 182.9 kPa, x2 = 0.118	0.1525
373.15 K, 194.9 kPa, x2 = 0.222	0.1519
373.15 K, 259.8 kPa, x2 = 0.427	0.1274
373.15 K, 267.8 kPa, x2 = 0.51	0.129
373.15 K, 435.2 kPa, x2 = 0.725	0.0908
373.15 K, 490.9 kPa, x2 = 0.658	0.0759
378.15 K, 185.5 kPa, x2 = 0.118	0.1525
378.15 K, 197.7 kPa, x2 = 0.222	0.1519
378.15 K, 263.6 kPa, x2 = 0.427	0.1274
378.15 K, 271.7 kPa, x2 = 0.51	0.129
378.15 K, 441.7 kPa, x2 = 0.725	0.0908
378.15 K, 498.2 kPa, x2 = 0.658	0.076
383.15 K, 188.1 kPa, x2 = 0.118	0.1525
383.15 K, 200.5 kPa, x2 = 0.222	0.1519
383.15 K, 267.4 kPa, x2 = 0.427	0.1274
383.15 K, 275.5 kPa, x2 = 0.51	0.129
383.15 K, 448.3 kPa, x2 = 0.725	0.0909
383.15 K, 505.8 kPa, x2 = 0.658	0.076
